Results: PubChem BioAssay (NCI)
“And” between values parts separate entries of the source, which are not always exact repeats. Equal entries are not always repeated.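 Growth conditions: 96-well plates. Treatment: test compound, 48 hours, 5 concentrations. Analysis: linear interpolation between bracketing concentrations; unreached endpoints set to highest concentration. GI50 marks 50% less growth. TGI is the concentration that stops growth completely.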

Columns and labels:
Experiment in all cases: NCI-60 cell line screen, 48 h
KM12 colon = test system: KM12 colon
SK-MEL-5 melanoma = test system: SK-MEL-5 melanoma
EKVX NSCLC = test system: EKVX NSCLC
UACC-257 melanoma = test system: UACC-257 melanoma
TK-10 renal = test system: TK-10 renal
OVCAR-4 ovarian = test system: OVCAR-4 ovarian
A498 renal = test system: A498 renal
UO-31 renal = test system: UO-31 renal
A549 NSCLC = test system: A549 NSCLC
MCF7 breast = test system: MCF7 breast

| Compound | GI50 (KM12 colon) | TGI (KM12 colon) | GI50 (SK-MEL-5 melanoma) | TGI (SK-MEL-5 melanoma) | GI50 (EKVX NSCLC) | TGI (EKVX NSCLC) | GI50 (UACC-257 melanoma) | TGI (UACC-257 melanoma) | GI50 (TK-10 renal) | TGI (TK-10 renal) | GI50 (OVCAR-4 ovarian) | TGI (OVCAR-4 ovarian) | GI50 (A498 renal) | TGI (A498 renal) | GI50 (UO-31 renal) | TGI (UO-31 renal) | GI50 (A549 NSCLC) | TGI (A549 NSCLC) | GI50 (MCF7 breast) | TGI (MCF7 breast) |
| --- | --- | --- | --- | --- | --- | --- | --- | --- | --- | --- | --- | --- | --- | --- | --- | --- | --- | --- | --- | --- |
| Nc1cc(C(F)F)c(-c2nc(N3[C@@H]4CC[C@H]3COC4)nc(N3[C@@H]4CC[C@H]3COC4)n2)cn1 | 0.569 µM | > 100 µM | 0.407 µM | 4.48 µM | 0.277 µM | 6.61 µM | 0.295 µM | 4.31 µM | 0.156 µM | 3.22 µM | 0.191 µM | 2.03 µM | 0.0367 µM | 0.232 µM | 0.119 µM | 6.85 µM | 0.341 µM | > 100 µM | 0.189 µM | > 100 µM |
| NC(C(=O)O)C(N)C(=O)O (centres undefined) | – | > 100 µM | – | > 100 µM | – | > 100 µM | – | > 100 µM | – | > 100 µM | – | > 100 µM | – | > 100 µM | – | > 100 µM | – | > 100 µM | – | > 100 µM |
| CC(=O)N1c2ccccc2C23CCN4CC5=CCOC(O)C(C5CC42)C13 (centres undefined) | – | > 100 µM | – | > 100 µM | – | > 100 µM | – | > 100 µM | – | > 100 µM | – | > 100 µM | – | > 100 µM | – | > 100 µM | – | > 100 µM | – | > 100 µM |
| Cc1oc2c(c1C(=O)c1ccccc1)C(=O)c1ccccc1C2=O | – | 18.7 µM | – | 4.15 µM | – | 29.6 µM | – | 10.5 µM | – | 33.2 µM | – | 9.95 µM | – | 33.9 µM | – | 22.4 µM | – | 40.2 µM | – | 10.6 µM |
| O=[N+]([O-])c1ccc2nc(N/N=C/c3ccc(O)cc3)sc2c1 | 2.72 µM | 17.2 µM | 2.88 µM | 11.1 µM | 7.37 µM | > 100 µM | 9.09 µM | 45 µM | 3.97 µM | 29.8 µM | 3.92 µM | 51.8 µM | 5.19 µM | 27.2 µM | 8.22 µM | > 100 µM | 3.52 µM | 29.4 µM | 3.17 µM | 70.5 µM |
| C/C=C(/C)C(=O)OC1C=C(CO)C(=O)C(OC(=O)/C(C)=C\C)C1C(C)C (centres undefined) | 1.45 µM | 3.02 µM | 1.33 µM | 2.66 µM | 1.75 µM | 3.22 µM | 1.28 µM | 2.65 µM | 1.38 µM | 2.79 µM | 1.12 µM | 2.49 µM | 1.55 µM | 2.95 µM | 1.29 µM | 2.57 µM | 1.45 µM | 2.94 µM | 0.416 µM | 2.16 µM |
| O=S(=O)(Nc1ccc(Cl)c(C(F)(F)F)c1)c1ccc(-c2cnc(C3CC3)o2)cc1 | 0.187 µM | 7.36 µM | 0.296 µM | 1.75 µM | 1.34 µM | 9.29 µM | 1.29 µM | 7.93 µM | 1.8 µM | 9.58 µM | 1.63 µM | 9.75 µM | 0.0814 µM | 1.23 µM | 0.871 µM | 6.25 µM | 0.577 µM | > 35.6 µM | 0.132 µM | 5.23 µM |
| O=[N+]([O-])c1ccc(N(CCO)CCO)c2c1no[n+]2[O-] | 1.16 µM | 2.53 µM | 1.09 µM | 2.31 µM | 1.8 µM | 6.66 µM | 1.89 µM | 6.54 µM | 2.2 µM | 8.22 µM | 1.65 µM | 6.62 µM | 1.58 µM | 3.68 µM | 2.01 µM | 8.65 µM | 1.83 µM | 8.92 µM | 1.21 µM | 10.2 µM |
| CCN(C)S(=O)(=O)Nc1cccc(Nc2ncnc3cc(NC(=O)CCl)ccc23)c1Cl | 4.39 µM | 12.2 µM | 3.43 µM | 7.83 µM | 3.9 µM | 13.6 µM | 3.59 µM | 15.8 µM | 4.64 µM | 13.3 µM | 3.53 µM | 8.75 µM | 5.02 µM | 24.8 µM | 4.17 µM | 7.93 µM | 6.18 µM | 16.3 µM | 1.11 µM | 8.33 µM |
| COC(=O)c1c2c(c(C)[n+]([O-])c1C)C(=O)C(NCc1ccc(F)c(Cl)c1)=CC2=O | 1.96 µM | 9.63 µM | 0.426 µM | 1.57 µM | 1.93 µM | 5.18 µM | 1.28 µM | 3.1 µM | 3.76 µM | 16 µM | 0.652 µM | 2.07 µM | 1.52 µM | 3.68 µM | 2.11 µM | 7.46 µM | 2.23 µM | 8.15 µM | 1.32 µM | 3.23 µM |
| N#Cc1ccc(-n2cnc(NC(=O)[C@H]3CCN(C#N)C3)c2)cc1 | 1.58 µM | 11.8 µM | 2.08 µM | 6.13 µM | 2.38 µM | 10.1 µM | 1.94 µM | 10.1 µM | 1.49 µM | 7.83 µM | 1.86 µM | 12.5 µM | 2.03 µM | 4.76 µM | 0.546 µM | 4 µM | 3.15 µM | > 100 µM | < 0.0378 µM | > 100 µM |
| Cc1cc(N2CCN(C)CC2)nc(NC2CCCC(Nc3ccnc4cc(Cl)ccc34)C2)n1 (centres undefined) | 2.89 µM | 10.1 µM | 1.76 µM | 3.17 µM | 2.81 µM | 12.5 µM | 2.1 µM | 3.93 µM | 1.81 µM | 3.63 µM | 1.9 µM | 6.24 µM | 4.31 µM | 15.1 µM | 1.49 µM | 2.86 µM | 3.14 µM | 11 µM | 1.39 µM | 4.45 µM |
| CC/C(=C(\c1ccc(O)cc1)c1ccc(OCCNC)cc1)c1ccccc1 | 1.7 µM and 1.64 µM and 1.81 µM | 3.15 µM and 3.14 µM and 3.49 µM | 1.77 µM and 1.66 µM and 1.71 µM | 3.17 µM and 3.07 µM | 2.41 µM and 2.04 µM | 8.86 µM and 5.59 µM | 1.93 µM and 1.64 µM and 1.7 µM | 3.82 µM and 3.35 µM and 3.28 µM | 2.39 µM and 1.88 µM and 2.56 µM | 5.5 µM and 3.89 µM and 6.26 µM | 4.62 µM and 4.21 µM | 18.5 µM and 15 µM | 2.33 µM and 1.84 µM | 10.2 µM and 4.12 µM and 8.67 µM | 1.54 µM and 1.32 µM and 1.67 µM | 4.41 µM and 3 µM and 3.57 µM | 2.33 µM and 1.79 µM and 1.74 µM | 5.55 µM and 3.49 µM and 3.75 µM | 0.788 µM and 0.427 µM | 2.84 µM and 2.83 µM and 2.81 µM |
| C=C1CC2(OC1=O)c1ccccc1CCc1ccccc12 | – | 9.4 µM | – | 28 µM | – | 20.3 µM | – | 7.9 µM | – | 7.09 µM | – | 4.65 µM | – | 41.2 µM | – | 20.6 µM | – | 21.8 µM | – | 16.2 µM |
| C=CC(=O)Nc1cc2c(Nc3ccc(OCc4ccccn4)c(Cl)c3)ncnc2cc1OCCN1CCOCC1 | 5.04 µM | > 100 µM | 3.8 µM | 14.3 µM | 0.775 µM | > 73.2 µM | 10.6 µM | > 100 µM | 0.0267 µM | > 100 µM | 5.9 µM | > 100 µM | 1.48 µM | 7.23 µM | 0.646 µM | > 100 µM | 6.4 µM | > 100 µM | – | > 100 µM |
| C#C[C@]1(O)CC[C@H]2[C@@H]3CC=C4c5nc(Nc6ccc(OC)cc6OC)sc5CC[C@]4(C)[C@H]3CC[C@@]21C | 2.07 µM | 5.57 µM | 1.73 µM | 3.26 µM | 2.66 µM | 17.8 µM | 1.57 µM | 4.99 µM | 3.9 µM | 15.6 µM | 4.44 µM | > 100 µM | 0.152 µM | 1.23 µM | 1.36 µM | 5.16 µM | 2.68 µM | 43.9 µM | 0.978 µM | 2.65 µM |
| NC(=O)c1c(OCc2c(F)cc(Br)cc2F)nsc1NC(=O)NCCCCN1CCCC1 | 2.73 µM | > 10 µM | 1.56 µM | 2.96 µM | > 10 µM | > 10 µM | 1.85 µM | 3.94 µM | 2.06 µM | 7.94 µM | > 10 µM | > 10 µM | 0.086 µM | 0.91 µM | 0.498 µM | 2.1 µM | 2.97 µM | > 10 µM | 1.99 µM | > 10 µM |
